Reference: patent US11590139B2, “Substituted aminopurine compounds, compositions thereof, and methods of treatment therewith” (Signal Pharmaceuticals, LLC, priority 2014, dated 2023)

System: Lox-IMVI melanoma cell line
Assay: Lox-IMVI anti-proliferative assay (growth inhibition, Cell Titer-Glo)
Type: cell-based, human
Details: Homo sapiens; Lox-IMVI melanoma cell line, anti-proliferative assay; read-out: Activity (IC50 activity level)
Summary of the method: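 Cells grown in RPMI + 10% FBS were exposed to compound at 0.5 nM to 10 μM (10-point, 3-fold dilution, duplicate, 0.2% DMSO final) for 72 h at 37 °C, 5% CO2. Viability was read by ATP luminescence at t0 and 72 h. IC50 came from a four-parameter logistic fit normalized to DMSO control.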

`C[C@@H]1COCC[C@H]1Nc1ncc2nc(Nc3c(F)cc(Cl)cc3F)n([C@H]3CC[C@@](C)(C(N)=O)CC3)c2n1` [Example 722, (1S,4s)-4-(8-(4-chloro-2,6-difluorophenylamino)-2-((3S,4R)-3-methyltetrahydro-2H-pyran-4-ylamino)-9H-purin-9-yl)-1-methylcyclohexanecarboxamide] showed an IC50 of under 250 nM.

Compound `C[C@@H]1COCC[C@H]1Nc1ncc2nc(Nc3c(F)cc(F)cc3Cl)n([C@H]3CC[C@@H](C(N)=O)CC3)c2n1` [Example 723, (1S,4s)-4-(8-(2-chloro-4,6-difluorophenylamino)-2-((3S,4R)-3-methyltetrahydro-2H-pyran-4-ylamino)-9H-purin-9-yl)cyclohexanecarboxamide] has an IC50 of under 250 nM.

For `C[C@]1(C(N)=O)CC[C@@H](n2c(Nc3c(F)cc(F)cc3Cl)nc3cnc(N[C@H]4CCOC[C@H]4F)nc32)CC1` [Example 724, (1R,4s)-4-(8-(2-chloro-4,6-difluorophenylamino)-2-((3S,4S)-3-fluorotetrahydro-2H-pyran-4-ylamino)-9H-purin-9-yl)-1-methylcyclohexanecarboxamide], the IC50 was under 250 nM.

`C[C@@H]1COCC[C@H]1Nc1ncc2nc(Nc3c(F)cc(F)cc3Cl)n([C@H]3CC[C@@](C)(C(N)=O)CC3)c2n1` [Example 725, (1S,4s)-4-(8-(2-chloro-4,6-difluorophenylamino)-2-((3S,4R)-3-methyltetrahydro-2H-pyran-4-ylamino)-9H-purin-9-yl)-1-methylcyclohexanecarboxamide] was tested, and the IC50 was under 250 nM.

Compound `C[C@]1(C(N)=O)CC[C@@H](n2c(Nc3c(F)cc(Cl)cc3Cl)nc3cnc(N[C@@H]4CCOC[C@H]4F)nc32)CC1` [Example 726, (1S,4s)-4-(8-(2,4-dichloro-6-fluorophenylamino)-2-((3S,4R)-3-fluorotetrahydro-2H-pyran-4-ylamino)-9H-purin-9-yl)-1-methylcyclohexanecarboxamide] has an IC50 of under 250 nM.

`C[C@@H]1COCC[C@H]1Nc1ncc2nc(Nc3c(Cl)cc(Cl)cc3Cl)n([C@H]3CC[C@@](C)(C(N)=O)CC3)c2n1` [Example 727, (1S,4s)-1-methyl-4-(2-((3S,4R)-3-methyltetrahydro-2H-pyran-4-ylamino)-8-(2,4,6-trichlorophenylamino)-9H-purin-9-yl)cyclohexanecarboxamide] showed an IC50 of under 250 nM.

`NC(=O)[C@H]1CC[C@@H](n2c(Nc3c(F)cc(Cl)cc3Cl)nc3cnc(N[C@@H]4CCOC[C@H]4F)nc32)CC1` [Example 728, (1S,4s)-4-(8-(2,4-dichloro-6-fluorophenylamino)-2-((3S,4R)-3-fluorotetrahydro-2H-pyran-4-ylamino)-9H-purin-9-yl)cyclohexanecarboxamide] was tested, and the IC50 was under 250 nM.

`CS(=O)(=O)C1CC(Nc2ncc3nc(Nc4c(Cl)cc(Cl)cc4Cl)n([C@H]4CC[C@@H](C(N)=O)CC4)c3n2)C1` (stereo partly drawn) [Example 729, (1s,4s)-4-(2-(3-(methylsulfonyl)cyclobutylamino)-8-(2,4,6-trichlorophenylamino)-9H-purin-9-yl)cyclohexanecarboxamide] was tested, and the IC50 was over 1000 nM.

Compound `CS(=O)(=O)C1CC(Nc2ncc3nc(Nc4c(Cl)cc(C#N)cc4Cl)n([C@H]4CC[C@@H](C(N)=O)CC4)c3n2)C1` (stereo partly drawn) [Example 730, (1s,4s)-4-(8-(2,6-dichloro-4-cyanophenylamino)-2-(3-(methylsulfonyl)cyclobutylamino)-9H-purin-9-yl)cyclohexanecarboxamide] has an IC50 of over 1000 nM.

For `CS(=O)(=O)C1CC(Nc2ncc3nc(Nc4c(F)cc(Cl)cc4Cl)n([C@H]4CC[C@@H](C(N)=O)CC4)c3n2)C1` (stereo partly drawn) [Example 731, (1s,4s)-4-(8-(2,4-dichloro-6-fluorophenylamino)-2-(3-(methylsulfonyl)cyclobutylamino)-9H-purin-9-yl)cyclohexanecarboxamide], the IC50 was over 1000 nM.

`CCN1CCC[C@@H](Nc2ncc3nc(Nc4c(Cl)cc(Cl)cc4Cl)n([C@H]4CC[C@@H](C(N)=O)CC4)c3n2)C1` [Example 732, (1S,4s)-4-(2-((R)-1-ethylpiperidin-3-ylamino)-8-(2,4,6-trichlorophenylamino)-9H-purin-9-yl)cyclohexanecarboxamide] gave an IC50 of over 1000 nM.

`CCN1CCC[C@@H](Nc2ncc3nc(Nc4c(Cl)cc(C#N)cc4Cl)n([C@H]4CC[C@@H](C(N)=O)CC4)c3n2)C1` [Example 733, (1S,4s)-4-(8-(2,6-dichloro-4-cyanophenylamino)-2-((R)-1-ethylpiperidin-3-ylamino)-9H-purin-9-yl)cyclohexanecarboxamide] gave an IC50 of over 1000 nM.

`CCN1CCC[C@@H](Nc2ncc3nc(Nc4c(F)cc(Cl)cc4Cl)n([C@H]4CC[C@@H](C(N)=O)CC4)c3n2)C1` [Example 734, (1S,4s)-4-(8-(2,4-dichloro-6-fluorophenylamino)-2-((R)-1-ethylpiperidin-3-ylamino)-9H-purin-9-yl)cyclohexanecarboxamide] gave an IC50 of over 1000 nM.

Compound `CS(=O)(=O)C1CC(Nc2ncc3nc(Nc4c(Cl)cc(C(F)(F)F)cc4Cl)n([C@H]4CC[C@@H](C(N)=O)CC4)c3n2)C1` (stereo partly drawn) [Example 735, (1s,4s)-4-(8-(2,6-dichloro-4-(trifluoromethyl)phenylamino)-2-(3-(methylsulfonyl)cyclobutylamino)-9H-purin-9-yl)cyclohexanecarboxamide] has an IC50 of over 1000 nM.

For `CS(=O)(=O)C1CC(Nc2ncc3nc(Nc4c(F)cc(Cl)cc4F)n([C@H]4CC[C@@H](C(N)=O)CC4)c3n2)C1` (stereo partly drawn) [Example 736, (1s,4s)-4-(8-(4-chloro-2,6-difluorophenylamino)-2-(3-(methylsulfonyl)cyclobutylamino)-9H-purin-9-yl)cyclohexanecarboxamide], the IC50 was over 1000 nM.

In the case of `CCN1CCC[C@@H](Nc2ncc3nc(Nc4c(Cl)cc(C(F)(F)F)cc4Cl)n([C@H]4CC[C@@H](C(N)=O)CC4)c3n2)C1` [Example 737, (1S,4s)-4-(8-(2,6-dichloro-4-(trifluoromethyl)phenylamino)-2-((R)-1-ethylpiperidin-3-ylamino)-9H-purin-9-yl)cyclohexanecarboxamide], the IC50 is reported as over 1000 nM.

Compound `CC(C)N1CCC[C@@H](Nc2ncc3nc(Nc4c(Cl)cc(Cl)cc4Cl)n([C@H]4CC[C@@H](C(N)=O)CC4)c3n2)C1` [Example 738, (1S,4s)-4-(2-((R)-1-isopropylpiperidin-3-ylamino)-8-(2,4,6-trichlorophenylamino)-9H-purin-9-yl)cyclohexanecarboxamide] has an IC50 of over 1000 nM.

For `CC(C)N1CCC[C@@H](Nc2ncc3nc(Nc4c(Cl)cc(C#N)cc4Cl)n([C@H]4CC[C@@H](C(N)=O)CC4)c3n2)C1` [Example 739, (1S,4s)-4-(8-(2,6-dichloro-4-cyanophenylamino)-2-((R)-1-isopropylpiperidin-3-ylamino)-9H-purin-9-yl)cyclohexanecarboxamide], the IC50 was over 1000 nM.

With `CC(C)N1CCC[C@@H](Nc2ncc3nc(Nc4c(F)cc(Cl)cc4F)n([C@H]4CC[C@@H](C(N)=O)CC4)c3n2)C1` [Example 740, (1S,4s)-4-(8-(4-chloro-2,6-difluorophenylamino)-2-((R)-1-isopropylpiperidin-3-ylamino)-9H-purin-9-yl)cyclohexanecarboxamide] the IC50 was over 1000 nM.

In the case of `CC(C)N1CCC[C@@H](Nc2ncc3nc(Nc4c(F)cc(Cl)cc4Cl)n([C@H]4CC[C@@H](C(N)=O)CC4)c3n2)C1` [Example 741, (1S,4s)-4-(8-(2,4-dichloro-6-fluorophenylamino)-2-((R)-1-isopropylpiperidin-3-ylamino)-9H-purin-9-yl)cyclohexanecarboxamide], the IC50 is reported as over 1000 nM.

In the case of `NC(=O)[C@H]1CC[C@@H](n2c(Nc3c(F)cc(F)cc3Cl)nc3cnc(N[C@@H]4CCCN(c5ccccc5)C4)nc32)CC1` [Example 742, (1S,4s)-4-(8-(2-chloro-4,6-difluorophenylamino)-2-((R)-1-phenylpiperidin-3-ylamino)-9H-purin-9-yl)cyclohexanecarboxamide], the IC50 is reported as over 1000 nM.

With `NC(=O)[C@H]1CC[C@@H](n2c(Nc3c(Cl)cc(Cl)cc3Cl)nc3cnc(N[C@@H]4CCCN(c5ccccc5)C4)nc32)CC1` [Example 743, (1S,4s)-4-(2-((R)-1-phenylpiperidin-3-ylamino)-8-(2,4,6-trichlorophenylamino)-9H-purin-9-yl)cyclohexanecarboxamide] the IC50 was over 1000 nM.

In the case of `N#Cc1cc(Cl)c(Nc2nc3cnc(N[C@@H]4CCCN(c5ccccc5)C4)nc3n2[C@H]2CC[C@@H](C(N)=O)CC2)c(Cl)c1` [Example 744, (1S,4s)-4-(8-(2,6-dichloro-4-cyanophenylamino)-2-((R)-1-phenylpiperidin-3-ylamino)-9H-purin-9-yl)cyclohexanecarboxamide], the IC50 is reported as over 1000 nM.

For `N#Cc1cc(F)c(Nc2nc3cnc(N[C@@H]4CCCN(c5ccccc5)C4)nc3n2[C@H]2CC[C@@H](C(N)=O)CC2)c(F)c1` [Example 745, (1S,4s)-4-(8-(4-cyano-2,6-difluorophenylamino)-2-((R)-1-phenylpiperidin-3-ylamino)-9H-purin-9-yl)cyclohexanecarboxamide], the IC50 was over 1000 nM.

`NC(=O)[C@H]1CC[C@@H](n2c(Nc3c(F)cc(F)cc3F)nc3cnc(N[C@@H]4CCCN(c5ccccc5)C4)nc32)CC1` [Example 746, (1S,4s)-4-(2-((R)-1-phenylpiperidin-3-ylamino)-8-(2,4,6-trifluorophenylamino)-9H-purin-9-yl)cyclohexanecarboxamide] was tested, and the IC50 was over 1000 nM.

In the case of `NC(=O)[C@H]1CC[C@@H](n2c(Nc3c(F)cc(Cl)cc3F)nc3cnc(N[C@@H]4CCCN(c5ccccc5)C4)nc32)CC1` [Example 747, (1S,4s)-4-(8-(4-chloro-2,6-difluorophenylamino)-2-((R)-1-phenylpiperidin-3-ylamino)-9H-purin-9-yl)cyclohexanecarboxamide], the IC50 is reported as over 1000 nM.

`NC(=O)[C@H]1CC[C@@H](n2c(Nc3c(F)cc(Cl)cc3Cl)nc3cnc(N[C@@H]4CCCN(c5ccccc5)C4)nc32)CC1` [Example 748, (1S,4s)-4-(8-(2,4-dichloro-6-fluorophenylamino)-2-((R)-1-phenylpiperidin-3-ylamino)-9H-purin-9-yl)cyclohexanecarboxamide] showed an IC50 of over 1000 nM.
